{"source": "patent US20080176744A1", "about": "(priority 2005, published 2008)", "system": "Pyricularia oryzae", "type": "cell-based", "conditions": "125 ppm, microtiter plate, absorption at 405 nm on the seventh day after inoculation", "data": [{"smiles": "CCCCCCCCc1c(N)nc(SC)nc1CC", "note": "[I-3, 6-ethyl-2-methylsulfanyl-5-octylpyrimidin-4-ylamine]", "values": [{"measurement": "growth (relative growth of the pathogen)", "value": "inhibited completely"}]}]}
